According to ChEMBL document CHEMBL4422677, “Prenylated Diresorcinols Inhibit Bacterial Quorum Sensing” (J Nat Prod, 2019):
pIC50: −log10 of the molar value. Calls of active or inactive are those of the source. No cut-off for these calls is given here.

Assays:
[1] = tested on: Staphylococcus aureus subsp. aureus USA300; test: Inhibition of Staphylococcus aureus USA300 LAC quorum sensing system Agr assessed as reduction in hla transcription at 2.9 to 16 uM after 5 hrs by RNA protect cell reagent based qRT-PCR analysis
[2] = target: T1, Accessory gene regulator protein A (Staphylococcus aureus) (UniProt P0A0I7); test: Inhibition of Staphylococcus aureus USA300 LAC quorum sensing system AgrA assessed as reduction in RNA3 transcription at 9 to 16 uM after 5 hrs by RNA protect cell reagent based qRT-PCR analysis; details: Staphylococcus aureus subsp. aureus USA300
T1 sequence (whole entry): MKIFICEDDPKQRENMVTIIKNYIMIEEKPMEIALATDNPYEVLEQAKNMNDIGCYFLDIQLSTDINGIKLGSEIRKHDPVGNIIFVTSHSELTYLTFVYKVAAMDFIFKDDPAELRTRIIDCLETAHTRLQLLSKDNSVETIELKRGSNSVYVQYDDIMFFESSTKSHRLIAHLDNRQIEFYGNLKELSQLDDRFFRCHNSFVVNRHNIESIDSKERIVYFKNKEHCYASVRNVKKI

Staphylococcus aureus = test: Effect on growth of Staphylococcus aureus USA300 LAC measured at 1 hr interval for 5 hrs
[3] = Inhibition of Staphylococcus aureus USA300 LAC quorum sensing system Agr assessed as reduction in AIP production measured after 5 hrs by UPLC-MS analysis; set-up: species or system Staphylococcus aureus subsp. aureus USA300
[4] = target: T1, Accessory gene regulator protein A (Staphylococcus aureus); test: Inhibition of Staphylococcus aureus USA300 LAC quorum sensing system AgrA assessed as reduction in psma transcription at 2.9 to 16 uM after 5 hrs by RNA protect cell reagent based qRT-PCR analysis; details: Staphylococcus aureus subsp. aureus USA300

inhibition [1] | inhibition [2] | pIC50 [3] | inhibition [4] | SMILES | Activity (Staphylococcus aureus)
– | – | 4.90 to 5.20 | – | O=C1c2cc(O)cc(O)c2C(=O)c2c(O)cc(CO)cc21 | –
– | – | 5.34 | – | CC(C)=CCc1c(O)cc(C)cc1Oc1cc(C)c(C(=O)O)c(O)c1 | –

More lines, now with the values behind:

SMILES | inhibition [1] | inhibition [2] | pIC50 [3] | inhibition [4] | Activity (Staphylococcus aureus)
CC(C)=C[C@H]1c2c(O)cc(C)cc2Oc2cc(C)c(C(=O)O)c(O)c21 | Active | Active | 6.52 | Active | Non-Toxic
CCCCC/C=C/C1=C(CO)[C@@H](O)[C@H]2O[C@@]2(C/C=C(\C)C(=O)O)C1=O | – | – | 5.89 | – | –
CC(C)=CC1c2c(O)cc(C)cc2Oc2cc(C)cc(O)c21 | – | – | 4.90 to 5.20 | – | –
